The source of these data is patent publication US10251835B2, “Cranial delivery of pharmaceuticals” (GLIA, LLC, priority 2013, dated 2019).

Entries after “also recorded” stand apart in the source; their conditions may differ.

One test concerns patients with dyslexia. As to the kind of experiment: Treatment of dyslexia and impaired executive brain function exacerbated by traumatic brain injury. Particulars: person. Type of test: in vivo, human. The procedure: A patient had been diagnosed in childhood with dyslexia. Symptoms included unstable binocular fixation while reading, the inability without compensating to find the end of one line and beginning of the next, and double overlapping perception of lines of print. They were also unable to read aloud in a fluid manner.
The individual applied a topical gel containing 4% by weight progesterone (4 mg of drug) to the forehead area.
The application was repeated twice over the next few days and the patient tested themself by reading text.
Regular treatment was continued for 10 weeks with the 4% progesterone gel applied to the forehead twice daily. The patient reported that in living with dyslexia for 52 years, they had never experienced as much stress relief in their visual system after the treatment.
After 8 weeks of treatment, the individual was asked to read aloud a complex paragraph of 8 sentences from their computer screen.
Treatment was interrupted after 10 weeks to determine the duration of benefit.
Seven years prior to initiation of progesterone topical treatment, the patient had suffered traumatic brain injury (TBI) in an auto accident. They reported exacerbation of their vision problems as a result of the accident.
After the crash they suffered from post-traumatic stress disorder triggered by loud sounds. The patient could not even listen to music because it would induce nausea. Two months after initiation of the progesterone treatment, they regained a good deal of social conformability, improved their ability to organize thoughts, eliminated their disjointed thinking, and gained the ability to write coherently.
A person who had been diagnosed with severe reading problems in third grade was later recognized as having dyslexia. Their reading problems became exacerbated by an automobile accident in 1980, following six months of coma. In general reading was a chore. However they made a concerted effort to learn to read, starting with children's books, and is now able to read regular print. Reading issues were exemplified by the need to place a ruler below each line so that they can follow the line and find the next line, and seeing letters backwards. They are not able to read small print at all. About 4 years ago their vision became worse. They were prescribed glasses that they use during periods when vision is worse than usual, whether near, intermediate, or far in distance.
A 1% progesterone topical composition was applied to forehead. […] The effect lasted from the time of application, around 7:30 pm to bedtime at around 11 pm.

In test [1] the test system is patient with corneal Herpes zoster. Kind of test: Treatment of herpetic keratitis. The test is classed as in vivo, human. The following applies: for intraocular pressure: ganciclovir gel plus progesterone to forehead. The text has this:
A person suffered a first onset of active corneal Herpes zoster. They presented with classic Herpes Zoster symptoms including, left hemisphere unilateral skin lesions on forehead, bridge of nose area and down the nose not including the tip; left cornea dendrites, keratitis and edema; loss of functional vision, elevated intraocular pressure as high as 42 mm Hg, conjunctival irritation and redness and anesthetic cornea. There were also general body flu symptoms.
The patient was initially treated with ophthalmic prednisolone acetate 1% up to 5 times daily, ophthalmic antibiotics, non-prescription ophthalmic wetting agents, and lubrication with gels administered to the eye. Additional drug therapies included systemic oral valcyclovir as high as 2 g per day and medications to reduce intraocular pressure.
Despite the therapy, symptom flare-up was as frequent as 2 weeks to 1 month over the past 10 years. Although intraocular pressure returned to within the normal range, cataracts formed as a result of long term use of corticosteroids.
The cornea surface contour became increasingly distorted with prominent ridges. There was incursion of capillaries across the conjunctiva into the cornea, both superficially and deep. Deposition of phospholipids through a leaching process occluded the cornea with grey color deposits on about 50% of its surface.
Corneal thinning had progressed to near perforation levels which required preparation for corneal patch surgery.
At this point, 1% topical progesterone (approximately 1 mg of progesterone) was first administered as a method to keep the cornea from perforating and the tear film intact. The drug was applied to the forehead 4 times daily together with topical antibiotics and corticosteroids.
After stabilizing the cornea, antiviral treatment was begun with ganciclovir gel (0.15%; 0.15 mg of drug) applied five times daily to the forehead together with once daily progesterone (1%; 1 mg of drug) and a nightly drop of ophthalmic antibiotic. Intraocular pressure measured at the onset of ganciclovir treatment was 18 mm Hg.
The patient reported a decrease in eye strain as a result of an improvement in tear film. […] Over the next two weeks, inflammation was further reduced and visual acuity increased somewhat when the head was tilted back. During the first full month of treatment, the affected eye generally felt comfortable. There was a lack of inflammation, and some vision returned to the threshold of functionality. Intraocular pressure remained normal in the range of 16 mm Hg.
There was modest improvement in reading the eye chart, and corneal staining due to defects was minimized. Intraocular pressure remained normal in both eyes at about 16 mm Hg during this period. The phospholipid deposits further reduced in density and began to give the appearance of lesser areas of concentrations. Nearly functional vision could be achieved by positioning the head back and viewing through the central cornea. The residual clear area of the cornea became more so and less inflamed. Through the end of the second month, improvement to the cornea accelerated. The pupil was now clearly visible and more light was entering the eye.
The patient was examined regularly by an ophthalmologist, and after three and one half months of treatment. The intraocular pressure was normal at 12 mm Hg. […] Intraocular pressure has remained in the same range for more than one year.

Test [2] concerns females with wrist fracture pain or wrist arthritis. Kind of test: Treatment of pain. The test is classed as in vivo, human. The following applies: person. An excerpt:
A person suffered a wrist fracture of the left distal radius and ulnar styloid, with subsequent severe pain.
A person was diagnosed 10 years ago with arthritis in their right wrist, with pain, weakness, and limited motion in the hand and wrist. […] The condition has worsened since they were first diagnosed. The individual is being treated with regular steroid injections. […] They are able to twist open tightly closed containers. Additionally, bone snapping sounds and feelings are no longer present.

Test [3] relates to male and female with cyclosporine-induced eye irritation. Kind of test: Treatment of drug-induced eye irritation. The test is classed as in vivo, human. The following applies: 1% progesterone to forehead after cleaning off drug residual; within two minutes. An excerpt: Ten minutes later, drug residual was cleaned off from the forehead, and 1% progesterone was applied.
For test [4], the system named is dogs with mucus discharge from the eyes. As to the kind of experiment: Treatment of dry eye in domestic animals. The test is classed as in vivo, dog. An excerpt:
A puggle presented with mucus discharge from the eyes. […] The owner reported that the dog has this problem spring and fall, which indicates it is allergic seasonal rhinitis. The reported use took place in the fall.
A bulldog diagnosed with Sjogren's syndrome had mucus discharge from the eyes.

Test [5] concerns person with blepharospasm. Kind of test: Treatment of blepharospasm. Type of test: in vivo, human. Particulars: fourteen days of 1% progesterone gel to forehead; before treatment 73. An excerpt:
Upon ophthalmic re-examination following fourteen days of 1% progesterone gel applied topically to the forehead, the blink rate had decreased to 18 times per minute.

Setting [6] is: 1% progesterone topical composition to forehead.

Take `CC(=O)[C@H]1CC[C@H]2[C@@H]3CCC4=CC(=O)CC[C@]4(C)[C@H]3CC[C@]12C` [progesterone]: the “reading and vision (patient report)” value in the test on patients with dyslexia (setting [6]) is “able to read without using; also recorded: distance vision also improved; also recorded: no longer bothered by the headlight glare; also recorded: Reapplication next morning restored vision improvements”. Also, the “time until they could feel a clearing in their head” value with patients with dyslexia (setting [6]) was “About 5 minutes”. Also, the “reading ability and visual system (patient report)” value with patients with dyslexia (4% progesterone gel to forehead, single applications then twice daily up to 10 weeks) is “effect lasting for hours; also recorded: slightly better and easier reading and line tracking; also recorded: lasted for about four hours; also recorded: able to track from one end of a line of text to the beginning of the next line without using a ruler; also recorded: read aloud with less choppiness; also recorded: accurate and fluid with only one word lapse”. Moreover, in the test with patients with dyslexia (4% progesterone gel to forehead, two months), the “executive function and stress after traumatic brain injury” value is listed as “improved executive function; also recorded: much lower level of stress; also recorded: ability to do simple math in their head”. In addition, in the test with patients with dyslexia (gel 4% progesterone (4 mg) to forehead), the “time until eyes relaxed into alignment” value was ≤ 60 s. Further, the “duration of benefit after interruption” value in the test with patients with dyslexia (ten days after stopping 10 weeks of 4% progesterone gel) is given as “continued benefit with only slight degradation”. In addition, the corneal deterioration result in test [1] (1% progesterone (about 1 mg) to forehead 4 times daily together with topical antibiotics and corticosteroids) was “Further corneal deterioration was halted”. Further, the “inflammation, visual acuity and state of affected eye” value in test [1] (ganciclovir gel 0.15% (0.15 mg) five times daily plus progesterone 1% (1 mg) once daily to forehead, nightly ophthalmic antibiotic, 1 week to 3.5 months) is “less inflammation and a slight improvement in visual acuity; also recorded: some functional vision was attained; also recorded: stable and normalizing”. Moreover, the intraocular pressure in test [1] (after three and one half months) was 12 mm Hg; in test [1] (both eyes, examination period up to third month), “about 16 mm Hg”; in test [1] (first full month of treatment), ~16 mm Hg. Further, the “wrist pain, mobility and strength” value in test [2] (arthritis, five days after applying 1% progesterone to forehead) is “significantly less wrist pain and increased mobility and strength”. In addition, in test [2] (wrist fracture, approximately 4 mg progesterone to forehead), the “time to significant decrease in pain” value is ≤ 15 min. Also, the “relief of cyclosporine-induced irritation and stinging” value in test [3] was “irritation and stinging began to dissipate”. Further, the “time to effect on mucus discharge from the eyes” value in test [4] (progesterone to the dog's forehead (puggle; bulldog with Sjogren's syndrome)) was ≤ 24 h. Moreover, the “mucus discharge from the eyes” value in test [4] (progesterone topical forehead treatment, daily) is “the problem no longer recurred; also recorded: cessation of mucus discharge”. Moreover, in test [5], the blink rate is reported as 18 times per minute.
